Reference: patent US20120071493A1, “SUBSTITUTED 8-SULFONYL-2,3,4,5-TETRAHYDRO-1H-GAMMA-CARBOLINES, LIGANDS AND PHARMACEUTICAL COMPOSITION; METHOD FOR THE PRODUCTION AND USE OF SAME” (priority 2009, published 2012)

How the values were obtained:
[1] = test system: animals as in example 18.1.1; assay: Passive avoidance, memory disturbed by MK-801; format: in vivo, mice; conditions: 0.2 mg/kg and 1 mg/kg intraperitoneally before training; MK-801 0.1 mg/kg
[2] = target: T1, recombinant human 5-HT6 receptor (Homo sapiens, UniProt P50406); assay: Antagonistic activity towards serotonin 5-HT6 receptors, cAMP cell function experiment; format: cell-based; conditions: HEK 293 cells expressing recombinant human 5-HT6 receptor; cAMP response to 10 μM serotonin; read-out: IC50, ability to block serotonin 5-HT6 receptors in the setting of cell function experiments
T1 construct: host or cells: HEK 293 cells with tetracycline-induced T-Rex system (Invitrogen)
T1 sequence (P50406 whole entry): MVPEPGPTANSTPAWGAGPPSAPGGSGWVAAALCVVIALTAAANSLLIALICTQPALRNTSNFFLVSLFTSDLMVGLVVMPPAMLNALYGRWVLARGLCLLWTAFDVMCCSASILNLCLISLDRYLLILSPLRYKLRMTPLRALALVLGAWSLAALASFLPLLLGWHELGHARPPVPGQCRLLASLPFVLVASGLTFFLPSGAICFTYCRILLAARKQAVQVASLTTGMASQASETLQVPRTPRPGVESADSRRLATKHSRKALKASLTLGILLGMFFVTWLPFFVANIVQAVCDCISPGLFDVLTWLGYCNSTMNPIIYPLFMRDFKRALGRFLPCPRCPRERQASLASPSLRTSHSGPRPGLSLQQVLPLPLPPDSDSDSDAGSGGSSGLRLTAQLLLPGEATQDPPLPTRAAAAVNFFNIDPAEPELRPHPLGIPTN
Method: Determination of antagonistic activity of substituted 8-sulfonyl-2,3,4,5-tetrahydro-1H-γ-carbolines of the general formula 1 towards serotonin 5-HT6 receptors. HEK 293 cells with tetracycline-induced T-Rex system (Invitrogen, USA) consistently expressing recombinant human 5-HT6 receptor, production of Etogen Scientific (USA), were used. The cells were grown in DMEM/10% FBS/1% AAS medium with Blasticidine S and Zeocin (both—Invitrogen, USA). According to the method worked up by the producer of T-Rex system tetracycline hydrochloride was added to the medium with the cells for the purpose of activation of 5-HT6 receptor expression. The cells were embedded in 96-well plates (30,000-40,000 cells per well) and incubated in 5%-CO2 incubator at 37° C. for 24 hs. Before experiments cells medium was replaced by Hank's balanced salt solution (HBSS), comprising 0.137 M NaCl, 5.4 mM KCl, 0.25 mM Na2HPO4, 0.44 mM KH2PO4, 1.3 mM CaCl2, 1.0 mM MgSO4, 5 mM HEPES (pH 7.4), 0.05% BSA and 1 mM IBMX. The tested compounds of general formula 1 were added to the cells in various concentrations. After incubation of the cells for 15 min at room temperature serotonin was added to them up to final concentration of 10 μM and incubation was continued for 30 min. The newly formed cAMP was determined by reagent kit LANCE cAMP Kit, according to the method described by the kit manufacturer […] (PerkinElmer, CIIIA). […] The data given testify that novel γ-carbolines of the general formula 1 are effective serotonin 5-HT6 receptor antagonists. Some of γ-carbolines of the general formula 1 have IC50<0.5 μM in the setting of cell function experiments (IC50—antagonist concentration blocking 5-HT6 receptors for 50%).

[3] = test system: male mice of BALB/c line; assay: Passive Avoidance of mice in the Shuttle Chamber, memory disturbed by Scopolamine; format: in vivo; conditions: 0.2 mg/kg, 30 minutes before training; retention after 24 hours
Method: 18.1.1. […] Experiments were carried out in aged male mice of BALB/c line weighing 20-25 grams or male rats of Vistar line weighing 200-250 g. A shuttle chamber (Ugo Basile, Italy) consisted of two sections was used. […] The sections were connected through a hole which could be overlapped by vertical door. The floor of the dark section was made of transverse metal bars on which DC current impulses could be fed. On the first day of experiment 30 minutes before training mice were injected […] with Scopolamine which causes memory disturbance. The animals of trial group were additionally injected with a compound of the general formula 1, for example, compound 1.1.1(4).HCl or 1.2.1(3).HCl, in doses of 0.2 mg/kg. The animals of control group were injected with physiological solution. Each group consisted of 8 animals. The animals were placed in the light section, and latent period of the first entry into the dark chamber was registered. Then the vertical door was closed and the animal was punished by 0.6 mA DC current for 3 seconds. After that the animal was taken back to its home cage. In 24 hours the same animal was placed again in the light section of the shuttle chamber and latent period of its first entry into the dark section, the total time of its stay in the light section and the number of entries into dark section was registered. Each monitoring lasted for 5 minutes. […]

[4] = test system: 31 receptors (alpha-adrenoceptors, dopamine, histamine, imidazoline, sigma, norepinephrine and serotonin receptors); assay: Displacement of radio-labelled ligands from 31 receptors (MDS Pharma Services); format: binding
Method: The interaction was estimated by the displacement of radio-labeled […] from their complex with the corresponding receptors by compound 1.1.1(4).HCl at its concentration of 10 mkM. […] The interaction was estimated by the displacement of radio-labeled […] from their complex with the corresponding receptors by compound 1.2.1(3).HCl at its concentration of 1 mkM. […] All radio-labelled experiments were carried out by MDS Pharma Services firm ([…].com/Services, Taipei, Taiwan) according to their protocols. Estimation of the results obtained is indicative of wide range of pharmacological activity of γ-carbolines of the general formula 1 towards alpha-adrenoceptors, dopamine receptors, histamine receptors, imidazoline receptors, sigma receptors, norepinephrine receptors and serotonin receptors.

IC50 [2] [nM]	% of radio-labelled ligands displacement ([4]; at 13 of 31 receptors, compound at 10 mkM, FIG. 1) [%]	number of receptors the compound actively interacts with (displacement >60%) ([4]; of 31 receptors, compound at 10 mkM, FIG. 1)	interaction with 31 receptors (displacement of radio-labelled ligands) ([4]; FIG. 2, compound at 1 mkM per figure legend)	SMILES	effect on amnesia caused by MK-801, passive avoidance [1]	effect on amnesia caused by Scopolamine, passive avoidance [3]
78	> 60	13	–	CN1CCc2c(c3cc(S(=O)(=O)c4ccccc4)ccc3n2C)C1.Cl [1.1.1(4)•HCl, 2,5-dimethyl-8-(phenylsulfonyl)-2,3,4,5-tetrahydro-1H-γ-carboline hydrochloride]	decrease amnesia caused by MK-801 markedly	decrease amnesia
15	–	–	Analogous results	CN1CCc2[nH]c3ccc(S(=O)(=O)Nc4cccc(F)c4)cc3c2C1.Cl [1.2.1(3)•HCl, 2-methyl-2,3,4,5-tetrahydro-1H-γ-carboline-8-sulfonic acid 3-fluorophenyl amide hydrochloride]	analogous effect	decrease amnesia
